Key:
[1] = target: KRAS G12C Lite (SEQ ID NO:3) (Homo sapiens, UniProt P01116, C118S/C51S/C80S/G12C/S136P/S39C); experiment: Intact mass analysis (LC-MS) of covalent modification, KRAS G12C Lite; format: binding; set-up: key to KRAS Lite Modification: a: KRAS Lite modified; conditions: intact mass spectrometry; covalent modification of KRAS G12C Lite
Method in brief: (§1)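 Protein (2 μM) reacted with compound (100 μM) for 24 h at 25° C in 20 mM HEPES pH 8, 150 mM NaCl, 2% DMSO, 2% glycerol, then analysed by intact-mass LC-MS (C4 column, positive-ion TOF). Up to 8 cysteine adducts allowed on deconvolution; adducts <2% of base peak ignored. % modification = adduct intensity over total protein plus adduct intensities.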

[2] = target: T1, KRAS G12C (SEQ ID NO:1 or SEQ ID NO:2) (Homo sapiens, UniProt P01116, G12C); experiment: Intact mass analysis (LC-MS) of covalent modification, KRAS G12C; format: binding; set-up: key to KRAS G12C Modification: b: KRAS G12C modified; conditions: intact mass spectrometry; covalent modification of KRAS G12C FL
T1 construct: purchased
Method in brief: as §1

[3] = system: phospho-ERK1/2 in MIA PaCa-2 cells (express KRAS G12C); experiment: ERK1/2 phosphorylation in MIA PaCa-2 cells; format: cell-based, human; set-up: key: X: KRAS G12C bound and modulated in cells
[4] = target: KRAS G12C Lite (Homo sapiens, UniProt P01116, C118S/C51S/C80S/G12C/S136P/S39C); experiment: Differential scanning fluorimetry, KRAS G12C Lite; format: binding; set-up: key: Y: protein destabilized; N: protein not destabilized; conditions: 37° C. 5 hours incubation
Experimental: (§2) KRas proteins at 0.05 mg/ml in buffer Hepes, 147 mM NaCl, 2% glycerol, 5 mM MgCl2, 1 mM EDTA, 10 μM GDP, pH 8.0 were incubated in the presence desired concentration of compounds (5% DMSO final concentration) at 37° C. for 5 hours. After incubation, Sypro Oange to a final concentration of 5× was added to each sample. 20 μl aliquots of samples were transferred PCR tubes, sealed with caps, and run in a BioRad CFX96 RTPCR thermocycler. In the instrument, the samples were heated at a rate of 1° C./min from 25 to 90 degrees. Fluorescence readings were taken every 1 degree. The data generated was exported and analyzed using GraphPad-Prism software. The denaturation curves were fit using a Boltzmann sigmoidal equation to calculate melting temperatures (Tm).

[5] = target: KRAS G12C (Homo sapiens, UniProt P01116, G12C); experiment: Differential scanning fluorimetry, KRAS G12C; format: binding; set-up: purchased; key: Y: protein destabilized; N: protein not destabilized; conditions: 37° C. 5 hours incubation
Experimental: as §2

Structure (SMILES)	KRAS Lite Modification [1]	KRAS G12C Modification [2]	pERK - MIA PaCa-2 - (6 hours, 5 uM) [3]	KRAS G12C Lite DSF ΔTm [4]	KRAS G12C DSF ΔTm [5]
Cc1ccnc(C(C)C)c1-n1c(=O)nc(NC2CN(S(=O)(=O)c3c(F)c(F)c(F)c(F)c3C(F)(F)F)C2)c2cc(F)c(Cl)nc21 [Compound 14A, 7-chloro-6-fluoro-1-(2-isopropyl-4-methylpyridin-3-yl)-4-((1-((2,3,4,5-tetrafluoro-6-(trifluoromethyl)phenyl)sulfonyl)azetidin-3-yl)amino)pyrido[2,3-d]pyrimidin-2(1H)-one]	a	b	X	Y	Y
Cc1ccnc(C(C)C)c1-n1c(=O)nc(NC2CN(S(=O)(=O)c3c(F)c(F)c(F)c(F)c3C(F)(F)F)C2)c2cc(F)c(-c3c(O)cccc3F)nc21 [Compound 15A, 6-fluoro-7-(2-fluoro-6-hydroxyphenyl)-1-(2-isopropyl-4-methylpyridin-3-yl)-4-((1-((2,3,4,5-tetrafluoro-6-(trifluoromethyl)phenyl)sulfonyl)azetidin-3-yl)amino)pyrido[2,3-d]pyrimidin-2(1H)-one]	a	b	X	Y	Y
